Numbers after ± are expanded uncertainties.
Test: xn = mol fraction of the nth substance listed
Details: 101 kPa, Liquid

CCn1cc[n+](C)c1.O=S(=O)([O-])C(F)(F)F [1-ethyl-3-methylimidazolium trifluoromethanesulfonate] + CCOC(C)=O
Details | mass density, 308.15 K [kg/m3] | mass density, 318.15 K [kg/m3] | mass density, 328.15 K [kg/m3] | speed of sound, 308.15 K [m/s] | speed of sound, 318.15 K [m/s] | speed of sound, 328.15 K [m/s]
x1 = 0.0501 | 931.96 ± 0.67 | 919.88 ± 0.71 | 907.62 ± 0.74 | 1106.8 ± 1.6 | 1063.9 ± 1.6 | 1021.3 ± 1.5
x1 = 0.1003 | 976.94 ± 0.57 | 965.24 ± 0.61 | 953.35 ± 0.64 | 1121.8 ± 1.6 | 1080.1 ± 1.6 | 1039.2 ± 1.6
x1 = 0.1502 | 1017.77 ± 0.6 | 1006.48 ± 0.56 | 995.07 ± 0.55 | 1142.2 ± 1.7 | 1102.3 ± 1.6 | 1062.7 ± 1.6
x1 = 0.2004 | 1055.22 ± 0.75 | 1044.34 ± 0.71 | 1033.39 ± 0.67 | 1165.1 ± 1.7 | 1127.3 ± 1.7 | 1090 ± 1.7
x1 = 0.3002 | 1120.28 ± 1.1 | 1110.07 ± 1 | 1099.87 ± 0.97 | 1210.2 ± 1.8 | 1176.5 ± 1.8 | 1143.3 ± 1.8
x1 = 0.4002 | 1174.52 ± 1.3 | 1164.82 ± 1.3 | 1155.15 ± 1.3 | 1249.5 ± 1.9 | 1219 ± 1.9 | 1189.3 ± 1.9
x1 = 0.5002 | 1220.67 ± 1.6 | 1211.35 ± 1.6 | 1202.08 ± 1.5 | 1284.4 ± 2 | 1256.6 ± 2 | 1229.4 ± 2
x1 = 0.6009 | 1260.71 ± 1.9 | 1251.69 ± 1.8 | 1242.72 ± 1.8 | 1316 ± 2.1 | 1290.1 ± 2.1 | 1264.9 ± 2.1
x1 = 0.6999 | 1295.11 ± 2.1 | 1286.31 ± 2.1 | 1277.58 ± 2.1 | 1344.2 ± 2.2 | 1319.8 ± 2.2 | 1296 ± 2.1
x1 = 0.8006 | 1325.68 ± 2.4 | 1317.07 ± 2.4 | 1308.52 ± 2.3 | 1370 ± 2.3 | 1346.8 ± 2.2 | 1324.1 ± 2.2
x1 = 0.8492 | 1339.04 ± 2.5 | 1330.51 ± 2.5 | 1322.04 ± 2.5 | 1381.6 ± 2.3 | 1358.8 ± 2.3 | 1336.5 ± 2.3
x1 = 0.9008 | 1352.38 ± 2.7 | 1343.92 ± 2.6 | 1335.52 ± 2.6 | 1393.2 ± 2.4 | 1370.8 ± 2.3 | 1348.9 ± 2.3
x1 = 0.9501 | 1364.37 ± 2.8 | 1355.98 ± 2.8 | 1347.65 ± 2.7 | 1403.6 ± 2.4 | 1381.6 ± 2.4 | 1360.1 ± 2.4
